Laboratory results taken from patent US5270304A, “Therapeutic 2-alkynyl adenosine agent for ischemic diseases of the heart or brain” (priority 1988, dated 1993).

Tests used:
[1] = Effect on renal blood flow (renal blood flow reduction effect); details: dog, in vivo
Protocol: (§2) Female and male adult mongrel dogs weighing 10 to 15 kg were used. After each dog was anesthetized by intravenous administration of 30 mg/kg of pentobarbital sodium, it was fixed on the back, and the left lower abdominal portion was cut open under artificial respiration to expose the left renal artery. Under heparin sodium treatment, a polyethylene cannula was inserted into the renal artery, and at the other end of the cannula was set a probe for blood flow measurement. Self-perfusion was effected by means of a tube for blood perfusion led from the left femoral artery and connected to the probe, and the renal artery blood flow was measured by means of an electromagnetic blood flow meter.
(§3) The test drug was injected intraarterially into the renal artery.

[2] = system: coronary artery / renal artery; test: Safety coefficient (margin of safety from renal blood flow reduction and coronary artery blood flow increase); design: species or system mongrel dogs
From the text: As described above, the 2-alkynyladenosine, which is the active ingredient of the drug of the present invention, has a remarkable platelet aggregation inhibitory effect, blood flow increasing effect of various blood vessels (coronary artery and vertebral artery) and brain protecting effect in combination. […] To describe in more detail, the 2-alkynyladenosine, which is the active ingredient of the present drug, has an extremely high ratio of the primary effects such as platelet aggregation inhibitory effect, blood flow increasing effect of various blood vessels, and brain protecting effect to the side-effects such as atrioventricular block appearance ratio and renal blood flow reduction effect, that is, the 2-alkynyladenosine has an extremely broad margin of safety as compared to the prior compounds. For example, the margins of safety (coefficients) of the 2-alkynyladenosine calculated on the basis of the results in TABLE 2 and TABLE 4 by taking an example of coronary artery blood flow increasing effect as the primary effect and renal blood flow reduction effect as the side-effect are as shown below in TABLE 5. From TABLE 5, it can be understood that the 2-alkynyladenosine is a compound having a broader margin of safety as compared with adenosine.

[3] = system: atrioventricular conduction; test: Effect on atrioventricular conduction (atrioventricular block appearance ratio); assay type: in vivo, guinea pigs; details: for Atrioventricular Block Appearance Ratio (Number of Animals Showing Appearance/Number of Animals Used): guinea pigs, second degree block, after intravenous 300 μg/kg
Protocol: Each of male guinea pigs weighing 360 to 600 g, after being anesthetized by intraperitoneal administration of 1.4 g/kg of urethane, was fixed on the back, and the trachea was cut open for ensuring airway, a polyethylene tube being inserted thereinto. The blood pressure was measured through a carrier amplifier by connecting the cannula inserted into the left common carotid artery to a pressure transducer. The electrocardiogram was recorded by means of a bioelectric amplifier according to the second induction method, and the PQ interval was measured from the electrocardiogram. The test drug was administered through the left femoral vein, and the presence or absence of appearance of atrioventricular block is represented by the appearance ratio of the second degree of atrioventricular block (number of animals showing appearance/number of animals used) by the test drug administration.

coronary artery = test: Coronary artery blood flow increasing effect; assay type: in vivo, mongrel dogs; details: Canis lupus familiaris; anesthetized dogs, intraarterial into coronary artery; 100% = reactive hyperemia after 15 s occlusion
Protocol: Adult mongrel dogs weighing 9 to 15 kg were anesthetized with pentobarbital sodium, and the chest of each was opened under artificial respiration. After pericardium excision, the left anterior descending coronary artery was peeled off from the surrounding tissues, a probe for blood flow measurement was set under heparin sodium treatment, and the coronary blood flow was measured by the use of an electromagnetic blood flow meter.
The test drug was injected intraarterially into the coronary artery.

vertebral artery = test: Vertebral artery blood flow increasing effect; assay type: in vivo, mongrel dogs; details: Canis lupus familiaris; anesthetized dogs, intraarterial into vertebral artery; 100% = increase by 100 μg/kg papaverine hydrochloride
Protocol: The chests of female and male adult mongrel dogs weighing 8 to 13 kg, under anesthesia by intravenous administration of pentobarbital sodium, were opened under artificial respiration along the median line to expose the left vertebral artery.
The test drug was injected intraarterially into the vertebral artery.

platelet aggregation = test: Platelet aggregation inhibitory effect (ADP-induced aggregation of washed platelets); assay type: cell-based, Nippon white rabbits; details: Oryctolagus cuniculus, washed rabbit platelets, 10 μM adenosine 5'-diphosphate, drug added 3 min before
Protocol: Male Nippon white rabbits weighing 2.0 to 2.5 kg were used. […] Next, centrifugation was carried out at 140×g for 15 minutes, and the supernatant (platelet-enriched plasma: PRP) was collected. The PRP was centrifuged at 1300×g for 7 minutes. The platelet pellets obtained were washed with a HEPES buffer for platelet washing (pH 6.5) and centrifuged at 1300×g for 7 minutes. […] For assaying platelet aggregation ability, an aggregometer was used, and 10 μl of a test drug was added to 380 μl of the platelet suspension. Three minutes later, 10 μl of a platelet aggregating substance (10 μM adenosine 5'-diphosphate at a final concentration) was added thereto to induce aggregation. […]

in vivo = details: dog
Protocol: as §2, §3

ICR mice [4] = test: Brain protecting effect: potassium cyanide (KCN)-induced anoxia method; assay type: in vivo; details: 30 min before 2.5 mg/kg KCN, (±S.E.), * P < 0.05
ICR mice [5] = test: Brain protecting effect: normobaric hypoxia method; assay type: in vivo; details: 30 min before 96% N2/4% O2, (±S.E.), control 126.8 ±10.7
Protocol: When the brain falls into hypoxia by cerebral circulatory disorder, its function will be rapidly and irreversibly lost. Accordingly, the pharmacological activities of the drugs were evaluated with the extension time relative to the survival time of the test animals under hypoxia or anoxia induced by changing gas phase components or by a drug.
Evaluation of the pharmacological activity by the normobaric hypoxia method was conducted by following the method of Yasuda et al. (Arch. Int. Pharmacodyn, 233, 136-144 (1978)) as described below.
Animals used were 8 to 11 male ICR mice of 7 weeks age (Clea Japan) per group.
The mice were placed in a desiccator made of glass, and hypoxia was induced by passing a gas mixture of 96% N2 and 4% O2 at a flow rate of 5 liters/min. The time after the passing of the gas into the desiccator to the respiration arrest of each mouse was measured and defined as the survival time.
The test drug was administered intraperitoneally 30 minutes before the initiation of gas passing. The average survival times for the control group and the group to which the test drug was administered were calculated.
The test drug was suspended in a physiological saline containing 0.5% CMC (carboxymethyl cellulose), and the dosage was 0.1 ml per 10 g of body weight. To the mice of the control group was administered 0.5% of the CMC physiological saline in the same manner. The statistical analysis was conducted according to the student's t-test.

Slc:ICR mice = test: Acute toxicity; details: mouse, in vivo, po, 1000 mg/kg
Protocol: (§1) By the use of Slc:ICR mice (7 to 8 weeks old), the acute toxicity tests of Compound 4 (n=5) and Compound 12 (n=13) were conducted.

Acute toxicity = details: mouse, in vivo; mice, oral administration, estimated
Protocol: as §1

Compound | ED50 [1] [mg/kg] | Safety Coefficient ([2]; from TABLE 2 coronary artery blood flow increasing effect and TABLE 4 renal blood flow reduction effect) | Atrioventricular Block Appearance Ratio (Number of Animals Showing Appearance/Number of Animals Used) [3] | ED50 (coronary artery) [mg/kg] | ED50 (vertebral artery) [mg/kg] | IC50 (platelet aggregation) [nM] | Safety Coefficient ([2]; dog, in vivo) | atrioventricular block appearance ratio compared with adenosine ([3]; 300 μg/kg intravenous) | ED50 (in vivo) [mg/kg] | Average Survival Time, Potassium Cyanide Induced Anoxia Method (ICR mice [4]; 1.0 mg/kg i.p., control (1) 39.8 (±2.4)) | Average Survival Time, Normobaric Hypoxia Method (ICR mice [5]; 0.1 mg/kg i.p.) | Average Survival Time, Normobaric Hypoxia Method (ICR mice [5]; 0.3 mg/kg i.p.) | Average Survival Time, Normobaric Hypoxia Method (ICR mice [5]; 1.0 mg/kg i.p., ** P < 0.01) | lethal cases (Slc:ICR mice) | LD50 (Acute toxicity) [mg/kg] | Average Survival Time, Normobaric Hypoxia Method (ICR mice [5]; 3.0 mg/kg i.p., ** P < 0.01) | Average Survival Time, Potassium Cyanide Induced Anoxia Method (ICR mice [4]; 30 mg/kg i.p., control (2) 41.8 (±1.9))
Nc1ncnc2c1ncn2[C@@H]1O[C@H](CO)[C@@H](O)[C@H]1O [Adenosine] | 0.0002 | 2 | 6/6 | 0.0001 | 0.00052 | 3200 | – | – | – | – | – | – | – | – | – | – | –
CCCCC#Cc1nc(N)c2ncn([C@@H]3O[C@H](CO)[C@@H](O)[C@H]3O)c2n1 [Compound 2, 2-hexynyladenosine] | – | – | 6/6 | – | 0.00014 | 61 | 75 | same atrioventricular block appearance ratio as that of adenosine | 0.00015 | 50.05 (±3.8) sec. | 171.9 (±22.1) sec. | 169.2 (±23.5) sec. | 217.3 (±26.2) sec. | – | – | – | –
CCCCCCC#Cc1nc(N)c2ncn([C@@H]3O[C@H](CO)[C@@H](O)[C@H]3O)c2n1 [Compound 4, 2-octynyladenosine] | – | – | 1/6 | – | 0.0004 | 140 | > 375 | – | > 0.003 | – | – | 128.7 (±4.8) sec. | 222.9 (±25.9) sec. | no lethal case was recognized | ≥ 1000 | 230.6 (±26.7) sec. | –
CCCCCCCC#Cc1nc(N)c2ncn([C@@H]3O[C@H](CO)[C@@H](O)[C@H]3O)c2n1 [Compound 5] | – | – | 0/6 | – | 0.0012 | 210 | > 40 | – | > 0.003 | – | – | – | – | – | – | – | –
CCCCCCCCC#Cc1nc(N)c2ncn([C@@H]3O[C@H](CO)[C@@H](O)[C@H]3O)c2n1 [Compound 6] | – | – | 1/6 | 0.00015 | > 0.003 | 720 | > 20 | – | > 0.003 | – | – | – | – | – | – | – | –
CCCCCCCCCCCCCCC#Cc1nc(N)c2ncn([C@@H]3O[C@H](CO)[C@@H](O)[C@H]3O)c2n1 [Compound 12, 2-hexadecynyladenosine] | – | – | 0/6 | > 0.0001 | > 0.003 | > 3100 | 30 | – | > 0.003 | – | – | – | – | no lethal case was recognized | ≥ 1000 | – | 76.7 (±11.7) sec.
